One experiment relates to GLUTag cells. Particulars: GLUTag cells.
In experiment [1] the target is T1, human endothelin ETA receptor (Homo sapiens, UniProt P25101).
T1 construct: expressed in transfected cells; host or cells: CHO cells
T1 sequence (P25101 21-427): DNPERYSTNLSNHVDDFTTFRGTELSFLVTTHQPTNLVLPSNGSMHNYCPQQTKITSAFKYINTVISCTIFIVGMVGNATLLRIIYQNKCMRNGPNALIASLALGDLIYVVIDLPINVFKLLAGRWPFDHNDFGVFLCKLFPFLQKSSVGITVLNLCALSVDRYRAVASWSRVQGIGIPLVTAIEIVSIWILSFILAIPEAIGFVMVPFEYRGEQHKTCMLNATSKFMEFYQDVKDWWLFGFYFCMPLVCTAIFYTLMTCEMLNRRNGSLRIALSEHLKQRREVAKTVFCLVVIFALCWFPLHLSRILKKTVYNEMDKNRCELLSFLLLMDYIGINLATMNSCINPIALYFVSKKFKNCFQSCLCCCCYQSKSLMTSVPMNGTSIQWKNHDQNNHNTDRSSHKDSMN
Briefly: Radioligand binding, human endothelin ETA receptor in transfected CHO cell membranes. Particulars: tested at a concentration of up to 3 μM (p>0.05). As for the experimental part:
To evaluate the affinity of EDN3 97-140 for the agonist site of the human endothelin ETA receptor, radioligand binding with CHO cells transfected with the ETA receptor was used. […] Following incubation, the samples are filtered rapidly under vacuum through glass fiber filters (GF/B, Packard) presoaked with 0.1% BSA and rinsed several times with an ice-cold buffer containing 50 mM Tris-HCl and 150 mM NaCl using a 96-sample cell harvester (Unifilter, Packard). Filters were dried and then counted for radioactivity in a scintillation counter (Topcount, Packard) using a scintillation cocktail (Microscint 0, Packard). Results are expressed as a percent inhibition of the control radioligand specific binding.

The test system of another experiment is ob/ob mice. The experiment in a line: Glucose tolerance (IPGTT) in ob/ob mice. Format: in vivo, mouse. The settings on record: for reduction in glucose: overnight fast, 0.6 mg/kg glucose challenge i.p., mean±SEM n=8. The protocol:
DIO mice fed on a high fat diet for 14 weeks and ob/ob mice were purchased from Jackson Labs. Ob/Ob mice and DIO mice used in all studies were used at 7 and 18 weeks old, respectively. After an overnight fast, ob/ob and DIO mice were injected with vehicle (20 mM Na acetate/140 mM NaCl) or EDN3 97-140 (0.1, 1 or 10 mg/kg i.p.) followed by a […] (i.p.) or 2 g/kg (i.p.) D-glucose challenge in ob/ob and DIO mice respectively. Plasma glucose levels were determined from mouse tail vein bleeds at 0, 15, 30, 60, and 120 minutes after compound injection and measured using an automatic glucometer (Alpha-Trak). To determine the acute insulin release, plasma insulin levels were measured by using an ELISA kit with mouse insulin as a standard (Meso Scale Discovery). Results were expressed as percentages of vehicle concentrations and statistical significance determined by 2-way ANOVA repeated measures.

A short description of another experiment: Insulin tolerance test. Format: in vivo. Particulars: 1 and 10 mg/kg i.p., acute administration (data not shown).
Another experiment deals with H4IIE rat hepatoma cells. Briefly: H4IIE glucose production in vitro. The experiment is classed as cell-based. The settings on record: 100 nM, 24 hours, mean of 3 independent experiments±SEM, p=0.01. The protocol: Cell culture reagents were purchased from Invitrogen (Gathersburg, Md.) unless otherwise noted. GLUTag cells were obtained from Dr. Daniel Drucker and cultured in High Glucose DMEM medium supplemented with 100 U/mL penicillin, 100 μg/mL streptomycin, and 10% fetal calf serum at 10% CO2 at 37° C. H4IIE rat hepatoma cells were purchase from American Type Culture Collection (Manassas, Va.) and cultured in low glucose DMEM supplemented with 100 U/mL penicillin, 100 μg/mL streptomycin, 2 mM L-glutamine and 10% heat-inactivated fetal calf serum at 5% CO2 and 37° C.
H4IIE cells were plated at 120,000 cells per well into 96-well Poly-D-Lysine coated plates and treated using a modification of the protocol as previously reported (de Raemy-Schenk, 2006). Briefly, 4 hours after plating, growth medium was exchanged for glucose production medium (glucose-free DMEM, 2 mM sodium pyruvate, and 20 mM sodium lactate) for 18 hours and then cells were treated with EDN3 97-140 or vehicle in fresh glucose production medium. After 24 hours, media was collected and assayed for glucose using an Amplex Red Glucose/Glucose Oxidase Assay Kit purchased from Invitrogen (Gathersburg, Md.). Data was reported as a percent of vehicle to normalize across experiments. […]

Experiment [2] has as its target T2, human endothelin ETB receptor (Homo sapiens, UniProt P24530).
T2 construct: expressed in transfected cells; host or cells: CHO cells
T2 sequence (P24530 27-442): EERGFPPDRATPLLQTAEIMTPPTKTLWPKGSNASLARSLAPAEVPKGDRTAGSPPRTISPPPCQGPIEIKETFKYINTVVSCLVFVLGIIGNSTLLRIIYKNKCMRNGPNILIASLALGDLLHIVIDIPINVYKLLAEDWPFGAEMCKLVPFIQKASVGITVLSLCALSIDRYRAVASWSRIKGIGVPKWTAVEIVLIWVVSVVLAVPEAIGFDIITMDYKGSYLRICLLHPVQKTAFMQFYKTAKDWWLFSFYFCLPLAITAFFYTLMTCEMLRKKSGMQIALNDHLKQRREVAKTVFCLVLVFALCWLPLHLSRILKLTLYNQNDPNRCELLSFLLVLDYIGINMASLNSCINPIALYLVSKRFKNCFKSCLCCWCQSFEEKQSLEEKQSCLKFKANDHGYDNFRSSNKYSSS
Briefly: Radioligand binding, human endothelin ETB receptor in transfected CHO cell membranes. Particulars: tested at a concentration of up to 3 μM (p>0.05). The protocol:
To evaluate the affinity of EDN3 97-140 for the agonist site of the human endothelin ETB receptor in transfected CHO cells, radioligand binding was used. […] Following incubation, the samples were filtered rapidly under vacuum through glass fiber filters (GF/B, Packard) presoaked with 0.1% BSA and rinsed several times with an ice-cold buffer containing 50 mM Tris-HCl and 150 mM NaCl using a 96-sample cell harvester (Unifilter, Packard). The filters were dried then counted for radioactivity in a scintillation counter (Topcount, Packard) using a scintillation cocktail (Microscint 0, Packard).

For the next experiment, the system named is INS1 cells. The experiment in a line: Glucose-stimulated insulin release from INS1 cells. The experiment is classed as cell-based. Particulars: 10 μM (data not shown).

“Also recorded” adds a separate entry of the source. Bridges are numbered along the chain shown (N, C = ends). Where no end group is shown, it is not given here.

Broadly, the EC50 is the concentration needed to bring the measured effect to its halfway point. As to “CTCFTYKDKECVYYCHLDIIWINTPEQTVPYGLSNYRESLRGKR-NH2 (disulfide 1-15, 3-11) [EDN3 97-140]”, the “stimulated GLP-1 secretion” value in the experiment on GLUTag cells (1 μM, vehicle pre-treatment) was 327±59 % of vehicle. Also, the “GLP-1 secretion from GLUTag cells, result in words” value with GLUTag cells (endothelin-3 at highest concentration 10 μM) is “most potent peptide tested”. Further, the EC50 with GLUTag cells (read-out: EC50, GLP-1 release GLUTag assay, 15 mM glucose) is 369 nM. For the same substance, the “binding to ETA receptor” value in experiment [1] was “failed to bind”. Further, the reduction in glucose in the experiment with ob/ob mice (1 mg/kg i.p. single bolus) came to 35.1±13%; with ob/ob mice (10 mg/kg i.p. single bolus), 31.3±6.9%. Besides, in the experiment on ob/ob mice (acute peripheral administration 0.1, 1 or 10 mg/kg i.p.), the “glucose excursion curve in response to an IPGTT” value is “decreased”. Further, in the experiment on ob/ob mice (i.p., trend towards an increase at 30 minutes at 10 mg/kg (p>0.05), 10 mg/kg), the “insulin secretion during IPGTT” value is “not statistically significant; also recorded: no statistically significant effect on insulin”. Besides, the “effect on insulin tolerance test” value in the experiment “Insulin tolerance test” is “no effect”. Further, in the experiment with H4IIE rat hepatoma cells, the “reduction of basal glucose production versus vehicle” value is 19.5±7.6%. The “binding to ETB receptor” value in experiment [2] was “failed to bind”. Besides, the “modulation of glucose-stimulated insulin release from INS1 cells” value in the experiment on INS1 cells is “failed to modulate”.

The values are drawn from patent publication US20130345392A1, “EDN3-LIKE PEPTIDES AND USES THEREOF” (Pfizer Inc, priority 2011, published 2013).
